Data taken from ChEMBL document CHEMBL1153466, “Isoplatensimycin: Synthesis and biological evaluation” (2009).
In brackets after ≈: the same amount, converted by molar mass.

Columns and labels:
Format in all cases: functional
Staphylococcus aureus [1] = test: Antimicrobial activity against vancomycin-resistant Staphylococcus aureus isolate 13
Staphylococcus aureus [2] = test: Antimicrobial activity against methicillin-susceptible Staphylococcus aureus isolate 2
Staphylococcus aureus [3] = test: Antimicrobial activity against methicillin-susceptible Staphylococcus aureus isolate 1
Staphylococcus aureus [4] = test: Antimicrobial activity against vancomycin-intermediate Staphylococcus aureus isolate 10
Staphylococcus aureus [5] = test: Antimicrobial activity against vancomycin-resistant Staphylococcus aureus isolate 15
Staphylococcus aureus [6] = test: Antimicrobial activity against methicillin-resistant Staphylococcus aureus isolate 8
Staphylococcus aureus [7] = test: Antimicrobial activity against vancomycin-susceptible Staphylococcus aureus isolate 11
Staphylococcus aureus [8] = test: Antimicrobial activity against methicillin-resistant Staphylococcus aureus isolate 6
Staphylococcus aureus [9] = test: Antimicrobial activity against vancomycin-intermediate Staphylococcus aureus isolate 9
Staphylococcus aureus [10] = test: Antimicrobial activity against methicillin-susceptible Staphylococcus aureus isolate 3
Staphylococcus aureus [11] = test: Antimicrobial activity against methicillin-resistant Staphylococcus aureus isolate 5
Staphylococcus aureus [12] = test: Antimicrobial activity against methicillin-resistant Staphylococcus aureus isolate 7
Staphylococcus aureus [13] = test: Antimicrobial activity against methicillin-susceptible Staphylococcus aureus isolate 4
Staphylococcus aureus [14] = test: Antimicrobial activity against vancomycin-resistant Staphylococcus aureus isolate 14
Staphylococcus aureus [15] = test: Antimicrobial activity against vancomycin-resistant Staphylococcus aureus isolate 12

Row | Structure (SMILES) | MIC (Staphylococcus aureus [1]) | MIC (Staphylococcus aureus [2]) | MIC (Staphylococcus aureus [3]) | MIC (Staphylococcus aureus [4]) | MIC (Staphylococcus aureus [5]) | MIC (Staphylococcus aureus [6]) | MIC (Staphylococcus aureus [7]) | MIC (Staphylococcus aureus [8]) | MIC (Staphylococcus aureus [9]) | MIC (Staphylococcus aureus [10]) | MIC (Staphylococcus aureus [11]) | MIC (Staphylococcus aureus [12]) | MIC (Staphylococcus aureus [13]) | MIC (Staphylococcus aureus [14]) | MIC (Staphylococcus aureus [15])
1 | CC12C[C@@]34C=CC(=O)[C@@](C)(CCC(=O)Nc5c(O)ccc(C(=O)O)c5O)C3[C@H](CC1C4)O2 (mixture of isomers) [PLATENSIMYCIN] | 1 µg/mL | 64 µg/mL | 4 µg/mL | 4 µg/mL | 0.5 µg/mL | 4 µg/mL | 2 µg/mL | 4 µg/mL | 4 µg/mL | 128 µg/mL | 4 µg/mL | 16 µg/mL | 2 µg/mL | 0.5 µg/mL | 1 µg/mL
2 | CC12CC3CC4(C=CC(=O)C(C)(CCC(=O)Nc5c(O)ccc(C(=O)O)c5O)C4C3O1)C2 (racemic) [ISOPLATENSIMYCIN] | 32 µg/mL (≈ 72.5 µM) | > 128 µg/mL | 128 µg/mL (≈ 290 µM) | > 128 µg/mL | 4 µg/mL (≈ 9.06 µM) | > 128 µg/mL | 16 µg/mL (≈ 36.2 µM) | > 128 µg/mL | > 128 µg/mL | > 128 µg/mL | > 128 µg/mL | > 128 µg/mL | 128 µg/mL (≈ 290 µM) | 2 µg/mL (≈ 4.53 µM) | 64 µg/mL (≈ 145 µM)
3 | CN[C@H](CC(C)C)C(=O)N[C@H]1C(=O)N[C@@H](CC(N)=O)C(=O)N[C@H]2C(=O)N[C@H]3C(=O)N[C@H](C(=O)N[C@H](C(=O)O)c4cc(O)cc(O)c4-c4cc3ccc4O)[C@H](O)c3ccc(c(Cl)c3)Oc3cc2cc(c3O[C@@H]2O[C@H](CO)[C@@H](O)[C@H](O)[C@H]2O[C@H]2C[C@](C)(N)[C@H](O)[C@H](C)O2)Oc2ccc(cc2Cl)[C@H]1O [VANCOMYCIN] | 128 µg/mL (≈ 88.3 µM) | – | – | – | > 128 µg/mL | – | – | – | – | – | – | – | – | > 128 µg/mL | 32 µg/mL (≈ 22.1 µM)
4 | Cc1onc(-c2ccccc2)c1C(=O)N[C@@H]1C(=O)N2[C@@H]1SC(C)(C)[C@@H]2C(=O)O [OXACILLIN] | – | 0.5 µg/mL (≈ 1.25 µM) | 0.125 µg/mL (≈ 0.311 µM) | > 128 µg/mL | – | > 128 µg/mL | – | > 128 µg/mL | > 128 µg/mL | 0.125 µg/mL (≈ 0.311 µM) | > 128 µg/mL | 16 µg/mL (≈ 39.9 µM) | 0.5 µg/mL (≈ 1.25 µM) | – | –
